Values of other authors as cited in patent US4808590A (priority 1988, dated 1989).

Conditions: British Patent Specification Nos. 1,078,049 and 932,875; cited from earlier work

C=C1C[C@](OC)([C@H](O)C(=O)N[C@@H](OC)[C@@H]2C[C@@H](O)C(C)(C)[C@@H](C[C@@H](COC)OC)O2)O[C@H](C)[C@@H]1C [Pederin]
antimitotic activity: shows antimitotic activity
